In PubChem BioAssay (NCI):
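A five-concentration, 48-hour dose response in 96-well plates underlies each endpoint, interpolated linearly between surrounding concentrations. TGI denotes the concentration required for complete inhibition of growth.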

What was measured:
Test in all cases: growth of human tumour cells (NCI), 48 h
[1] = tested on: MOLT-4 leukemia
[2] = tested on: OVCAR-4 ovarian
[3] = tested on: SNB-75 CNS
[4] = tested on: SNB-19 CNS
[5] = tested on: A498 renal
[6] = tested on: RPMI-8226 leukemia
[7] = tested on: LOX IMVI melanoma
[8] = tested on: IGROV1 ovarian
[9] = tested on: HT29 colon
[10] = tested on: SF-539 CNS
[11] = tested on: UACC-257 melanoma
[12] = tested on: NCI/ADR-RES ovarian
[13] = tested on: SK-MEL-5 melanoma
[14] = tested on: BT-549 breast
[15] = tested on: OVCAR-3 ovarian
[16] = tested on: OVCAR-5 ovarian
[17] = tested on: HS 578T breast
[18] = tested on: SF-268 CNS
[19] = tested on: DU-145 prostate
[20] = tested on: NCI-H226 lung
[21] = tested on: CCRF-CEM leukemia
[22] = tested on: MCF7 breast
[23] = tested on: UACC-62 melanoma
[24] = tested on: SK-OV-3 ovarian
[25] = tested on: RXF 393 renal
[26] = tested on: HCT-15 colon
[27] = tested on: TK-10 renal
[28] = tested on: SK-MEL-28 melanoma
[29] = tested on: SR leukemia
[30] = tested on: EKVX NSCLC
[31] = tested on: HOP-92 NSCLC
[32] = tested on: HCT-116 colon
[33] = tested on: HCC-2998 colon
[34] = tested on: NCI-H460 lung
[35] = tested on: OVCAR-8 ovarian
[36] = tested on: SN12C renal
[37] = tested on: MDA-N
[38] = tested on: ACHN renal
[39] = tested on: U251 CNS
[40] = tested on: NCI-H23 lung
[41] = tested on: UO-31 renal
[42] = tested on: SK-MEL-2 melanoma
[43] = tested on: COLO 205 colon
[44] = tested on: MDA-MB-231 breast
[45] = tested on: K-562 leukemia
[46] = tested on: SF-295 CNS
[47] = tested on: A549 NSCLC
[48] = tested on: PC-3 prostate
[49] = tested on: SW-620 colon
[50] = tested on: HOP-62 NSCLC
[51] = tested on: MDA-MB-435
[52] = tested on: CAKI-1 renal
[53] = tested on: M14 melanoma
[54] = tested on: 786-0 renal
[55] = tested on: KM12 colon
[56] = tested on: T-47D breast
[57] = tested on: HL-60(TB) leukemia

COc1ccc(C2OC[C@H]3O[C@@H](OCc4ccccc4)[C@H](O)[C@@H](O)[C@@H]3O2)cc1 (some centres not stated)
TGI [1]: > 100 µM | TGI [2]: > 100 µM | TGI [3]: > 100 µM | TGI [4]: > 100 µM | TGI [5]: > 100 µM | TGI [6]: > 100 µM | TGI [7]: > 100 µM | TGI [8]: > 100 µM | TGI [9]: > 100 µM | TGI [10]: > 100 µM | TGI [11]: > 100 µM | TGI [12]: > 100 µM | TGI [13]: > 100 µM | TGI [14]: > 100 µM | TGI [15]: > 100 µM | TGI [16]: > 100 µM | TGI [17]: > 100 µM | TGI [18]: > 100 µM | TGI [19]: > 100 µM | TGI [20]: > 100 µM | TGI [21]: > 100 µM | TGI [22]: > 100 µM | TGI [23]: > 100 µM | TGI [24]: > 100 µM | TGI [25]: > 100 µM | TGI [26]: > 100 µM | TGI [27]: > 100 µM | TGI [28]: > 100 µM | TGI [29]: > 100 µM | TGI [30]: > 100 µM | TGI [31]: > 100 µM | TGI [32]: > 100 µM | TGI [33]: > 100 µM | TGI [34]: > 100 µM | TGI [35]: > 100 µM | TGI [36]: > 100 µM | TGI [37]: > 100 µM | TGI [38]: > 100 µM | TGI [39]: > 100 µM | TGI [40]: > 100 µM | TGI [41]: > 100 µM | TGI [42]: > 100 µM | TGI [43]: > 100 µM | TGI [44]: > 100 µM | TGI [45]: > 100 µM | TGI [46]: > 100 µM | TGI [47]: > 100 µM | TGI [48]: > 100 µM | TGI [49]: > 100 µM | TGI [50]: > 100 µM | TGI [51]: > 100 µM | TGI [52]: > 100 µM

CN1c2ccc(Cl)cc2C(=O)NC1c1ccc([N+](=O)[O-])s1 (configuration not stated)
TGI [53]: 32.5 µM | TGI [1]: 33.7 µM | TGI [2]: 71.5 µM | TGI [3]: 35.4 µM | TGI [4]: > 100 µM | TGI [5]: 32.8 µM | TGI [6]: 26.7 µM | TGI [7]: 28.8 µM | TGI [8]: 31.5 µM | TGI [9]: 39.1 µM | TGI [10]: 37.5 µM | TGI [11]: 29.1 µM | TGI [12]: 35.3 µM | TGI [13]: 31.6 µM | TGI [14]: 34.8 µM | TGI [15]: 31.4 µM | TGI [16]: 54.1 µM | TGI [17]: 34.2 µM | TGI [18]: 21.5 µM | TGI [19]: 45.1 µM | TGI [21]: > 100 µM | TGI [22]: 44.6 µM | TGI [23]: 26.3 µM | TGI [24]: 67.2 µM | TGI [25]: 24.6 µM | TGI [26]: 35.9 µM | TGI [27]: 48.5 µM | TGI [28]: 43.7 µM | TGI [29]: 35.1 µM | TGI [30]: 57.8 µM | TGI [31]: 33.1 µM | TGI [32]: 29 µM | TGI [33]: 31.1 µM | TGI [34]: 36.4 µM | TGI [35]: 38.9 µM | TGI [36]: 30.9 µM | TGI [54]: 30.8 µM | TGI [37]: 31.7 µM | TGI [38]: 51.7 µM | TGI [55]: 31.9 µM | TGI [39]: 32.5 µM | TGI [41]: 26.5 µM | TGI [42]: 30.8 µM | TGI [43]: 66.4 µM | TGI [44]: 33.1 µM | TGI [45]: 34.8 µM | TGI [56]: 55 µM | TGI [46]: 85.7 µM | TGI [57]: 49.3 µM | TGI [47]: 92 µM | TGI [48]: 36.1 µM | TGI [49]: > 100 µM | TGI [50]: 59.6 µM | TGI [51]: 31.4 µM | TGI [52]: 40.7 µM
